Data on 14 molecules can be found in US5436369A, “Alicyclic phospholipase A2 inhibitors” (Bristol-Myers Squibb Company, priority 1994, dated 1995).

For this test, the target named is T1, PLA2 (Homo sapiens, UniProt P14555).
T1 construct: The enzyme is isolated from human platelets; from tissue; host or cells: human platelets
T1 sequence (P14555 21-144): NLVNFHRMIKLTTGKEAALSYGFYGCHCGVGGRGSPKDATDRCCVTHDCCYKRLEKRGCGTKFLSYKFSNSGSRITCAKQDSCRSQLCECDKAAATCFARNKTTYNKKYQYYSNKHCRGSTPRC
Description: PLA2 Inhibition Assay (14C-oleate labeled E. coli membrane substrate). The class given is biochemical. The following applies: enzyme isolated from human platelets. Here is the method: The method used is similar to that reported by Franson, et al. [Jesse, R. L. and Franson R. C., Biochim. Biophys. Acta 575:467-470 (1979); Franson, R. C., Patriarca, P., and Elsback, P., J. Lipid Res. 15: 380-388 (1974)]. The enzyme is isolated from human platelets. The substrate used consists of ^14 C-oleate labeled Escherichia coli membranes. E. coli cells are grown in the presence of ^14 C-oleic acid and then autoclaved to prepare the membranes.
Various concentrations of test compounds are pre-incubated with PLA2 (3.6 μg/mL in a buffer consisting of 25 mM HEPES (pH 7)), 150 mM NaCl, 5.0 mM CaCl2, and 10% DMSO (v/v, test compound solvent) at 37° C. for 7 minutes. The E. coli membrane substrate is then added (0.1 mM phospholipid, 0.005 μCi ^14 C) and the reaction is then incubated at 37° C. for 30 minutes. The reaction is then terminated by the addition of 1.9 mL tetrahydrofuran (THF), and the entire solution is applied to a solid-phase extraction column (aminopropyl resin, Analytichem). The column is rinsed with an additional 1 mL of THF. The free fatty acid product of the reaction is then eluted from the column with 1 mL of 2% acetic acid in THF and collected in a scintillation vial. The amount of free fatty acid product is determined by liquid scintillation counting. The amount of inhibition produced by the test compound is calculated by comparing the counts obtained in the presence of the compound to those obtained in its absence (solvent only). Background counts were determined by performing incubations in the absence of enzyme.
Percent inhibition is determined by the equation: [formula]

The mark [1] stands for this setting: Table 1, Structure 11 (Type IA).
The mark [2] stands for this setting: Table 2, Structure 14 (Type IA).

Each structure is given as a SMILES string.

For `C/C(=C\CC(/C=C\C(=O)O)c1cccc(C(=O)O)c1)c1ccc2c(c1)C(C)(C)CCC2(C)C` (racemic) [Structure 32c], for the setting “Table 5, Structure 32 (Type IC), 100 μm as printed”, the “% Inhibition of PLA2 at 100 μm” value was found to be 67%.
One may read the inhibition as the drop in the measured response relative to a control, in per cent. Low values mean a weak effect, high ones a strong effect. On to `O=C(O)/C=C\C(=C\c1ccccc1)c1cccc(C(=O)O)c1` [Structure 11a, (2Z),(4Z)-4-(3-Carboxyphenyl)-5-phenyl-2,4-pentadienoic acid], for which 100 µM produced 6% inhibition under setting [1].
The same measure, in the same setting: in the case of `CC1(C)CCC(C)(C)c2cc(/C=C(/C=C\C(=O)O)c3cccc(C(=O)O)c3)ccc21` [Structure 11b, (2Z),(4Z)-4-(3-Carboxyphenyl)-5-(5,6,7,8-tetrahydro-5,5,8,8-tetramethyl-2-naphthalenyl)-2,4-pentadienoic acid] it was 44%; in that of `CC1(C)CCC(C)(C)c2cc3cc(/C=C(/C=C\C(=O)O)c4cccc(C(=O)O)c4)ccc3cc21` [Structure 11c, (2Z),(4Z)-4-(3-Carboxyphenyl)-5-(5,6,7,8-tetrahydro-5,5,8,8-tetramethyl-2-anthracenyl)-2,4-pentadienoic acid], 97%; in that of `CCCCCCCCCCOc1ccc(/C=C(/C=C\C(=O)O)c2cccc(C(=O)O)c2)cc1` [Structure 11d, (2Z),(4Z)-4-(3-Carboxyphenyl)-5-(4-decyloxyphenyl)-2,4-pentadienoic acid], 100%.
On the same count and under the same terms, the result for `CCCCCCCCCCOc1ccc(/C=C(/C=C\C(=O)O)c2cccc(C(=O)O)c2)cc1OCCCCCCCCCC` [Structure 11e, (2Z),(4Z)-4-(3-Carboxyphenyl)-5-(3,4-bisdecyloxyphenyl)-2,4-pentadienoic a cid] reads 100%; that for `O=C(O)/C=C\C(=C\CCc1ccccc1)c1cccc(C(=O)O)c1` [Structure 11f, (2Z),(4Z)-4-(3-Carboxyphenyl)-7-phenyl-2,4-heptadienoic acid], 15%.
Same read-out and setting: in the case of `CC1(C)CCC(C)(C)c2cc(CC/C=C(/C=C\C(=O)O)c3cccc(C(=O)O)c3)ccc21` [Structure 11g, (2Z),(4Z)-4-(3-Carboxyphenyl)-7-(5,6,7,8-tetrahydro-5,5,8,8-tetramethyl-2-naphthalenyl)-2,4-heptadienoic acid] it was 58%; in that of `C\C(=C/C=C(/C=C\C(=O)O)c1cccc(C(=O)O)c1)c1ccc2c(c1)C(C)(C)CCC2(C)C` [Structure 11h, (2Z),(4Z),(6E)-4-(3-Carboxyphenyl)-7-(5,6,7,8-tetrahydro-5,5,8,8-tetramethyl-2-naphthalenyl)-2,4,6-octatrienoic acid], 97%.
For `COc1cc(CC/C=C(/C=C\C(=O)O)c2cccc(C(=O)O)c2)ccc1C12CC3CC(CC(C3)C1)C2` [Structure 11i, (2Z),(4Z)-4-(3-Carboxyphenyl)-7-[4-(1-adamantyl)-3-methoxyphenyl]-2,4-heptadienoic acid], at 100 µM the inhibition under setting [1] was 100%.
In turn, `COc1ccc(CC/C=C(/C=C\C(=O)O)c2cccc(C(=O)O)c2)cc1C12CC3CC(CC(C3)C1)C2` [Structure 11j, (2Z),(4Z)-4-(3-Carboxyphenyl)-7-[3-(1-adamantyl)-4-methoxyphenyl]-2,4-heptadienoic acid] had an inhibition at 100 µM under setting [1] of 98%.
On the same count and under the same terms, the result for `CC(=C/C(=O)O)/C(=C/c1ccc2cc3c(cc2c1)C(C)(C)CCC3(C)C)c1cccc(C(=O)O)c1` [Structure 11k, (2Z),(4Z)-3-Methyl-4-(3-carboxyphenyl)-5-(5,6,7,8-tetrahydro-5,5,8,8-tetramethyl-2-anthracenyl)-2,4-pentadienoic acid] reads 98%.
As to `CCCCCCCCCCOc1ccc(/C=C(/C=C\C(=O)O)c2cccc(C(F)(F)F)c2)cc1` [Structure 14a, (2Z),(4Z)-4-(3-Trifluoromethylphenyl)-5-(4-decyloxyphenyl)-2,4-pentadienoic acid], the inhibition at 100 µM under setting [2] amounted to 100%.
Still for that read-out and setting: in the case of `CCCCCCCCCCOc1cccc(/C=C(/C=C\C(=O)O)c2cccc(C(F)(F)F)c2)c1` [Structure 14b, (2Z),(4Z)-4-(3-Trifluoromethylphenyl)-5-(3-decyloxyphenyl)-2,4-pentadienoic acid] it was 100%.
